# How the values were obtained:
# [1] = target: T1, human neuropeptide Y5 receptor (Homo sapiens, UniProt Q15761); assay: NPY5 HTS centrifugation assay: competition with 125I-PYY for binding to membranes of NPY5-transfected HEK293 cells; settings: for % Inh @ 300 nM / inhibition at 0.3 µM: % inhibition of 125I-PYY binding at 300 nM compound; for % Inh @ 3 uM / inhibition at 3 µM: % inhibition of 125I-PYY binding at 3 uM compound; for inhibition at 0.3 µM: read-out: % Inh @ 300 nM
# T1 construct: expressed in transfected cells; membranes
# T1 sequence (Q15761 1-445): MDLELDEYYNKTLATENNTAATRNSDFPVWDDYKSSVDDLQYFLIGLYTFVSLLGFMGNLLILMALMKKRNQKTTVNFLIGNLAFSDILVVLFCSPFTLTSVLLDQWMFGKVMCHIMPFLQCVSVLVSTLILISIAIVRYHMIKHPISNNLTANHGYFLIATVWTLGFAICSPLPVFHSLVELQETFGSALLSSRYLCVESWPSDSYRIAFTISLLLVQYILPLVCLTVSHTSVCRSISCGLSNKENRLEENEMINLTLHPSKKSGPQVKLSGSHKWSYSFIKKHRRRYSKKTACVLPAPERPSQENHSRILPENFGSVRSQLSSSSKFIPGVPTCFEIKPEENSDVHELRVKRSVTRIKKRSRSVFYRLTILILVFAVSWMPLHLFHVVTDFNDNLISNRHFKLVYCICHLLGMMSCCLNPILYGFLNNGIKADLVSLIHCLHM
# Method: NPY5 HTS Centrifugation Assay
# The compounds described in this invention were evaluated for binding to the human neuropeptide Y5 receptor.
# The human NPY5 receptor cDNA (Genbank Accession number U66275) was inserted into the vector pClneo (Invitrogen) and transfected into human embryonic kidney cells (HEK-293) via calcium phosphate method (Cullen 1987). Stably transfected cells were selected with G-418 (600 μg/mL). Stably transfected cells served as the source for the membranes for the NPY5 receptor binding assay.
# NPY5-transfected HEK293 cells were grown to confluence in 150 cm^2 culture dishes. Cells were washed once with phosphate-buffered saline (Gibco Cat# 14040-133). Cells were then incubated in phosphate-buffered saline without calcium and without magnesium, supplemented with 2 mM EDTA. Cells were incubated for 10 minutes at room temperature and the cells were collected by repetitive pipeting. Cells were formed into pellets and then frozen at −80° C. until needed. Frozen pellets were homogenized with a polytron at full speed for 12 seconds in a homogenization buffer (20 mM Tris HCl, 5 mM EDTA, pH 7.4). Homogenates were centrifuged for 5 minutes at 4° C. at 200 g. Supernatants were transferred to corex tubes and centrifuged for 25 minutes at 28,000 g. Pellets were re-suspended in Binding (20 mM HEPES, 10 mM NaCl, 0.22 mM KH2PO4, 1.3 mM CaCl2, 0.8 mM MgSO4, pH 7.4). Membranes were kept on ice until use.
# A competition binding assay, known to those skilled in the art, was used in which compounds of formula A compete with ^125I-PYY for binding to cell membranes. In simple terms, the less ^125I-PYY bound to the membranes implies that a compound is a good inhibitor (competitor). Bound ^125I-PYY is determined by centrifugation of membranes, aspirating supernatant, washing away residual ^125I-PYY and subsequently counting the bound sample in a gcounter.
# Compounds to be tested were prepared as 10× stocks in binding buffer and added first to assay tubes (RIA vials, Sarstedt). Twenty (20) μL of each 10× compound stock is pipeted into vials and 80 μL of ^125I-PYY (NEN catalog number NEX240), which has been diluted to a concentration of 200 pM in 0.25% BSA in binding buffer, is added to the compound tubes (final concentration of ^125I-PYY is 80 pM). To each tube is added 100 μL of membranes and the mixture is agitated by pipeting 2 times. Samples are incubated for 1 hr at room temperature. Aluminum cast plates (Sarstedt) containing the vials are then centrifuged 10 minutes at 3200 rpm in a Sorvall RT6000. Supernatant is then aspirated. To each vial 400 μL PBS is added and this is then aspirated again. Vials are then put in carrier polypropylene 12×75 tube and counted in gamma counter (Packard). Non-specific binding is determined in the presence of 300 nM NPY. Percent inhibition of ^125I-PYY binding is calculated by subtracting non-specific binding from the test samples (compound (I)), taking these counts and dividing by total binding, and multiplying by 100. Inhibitory concentration values (IC50) of compounds that show appreciable inhibition of ^125I-PYY binding are calculated by obtaining percent inhibition of ^125I-PYY binding values at different concentrations of the test compound, and using a graphing program such as GraphPad Prism (San Diego, Calif.) to calculate the concentration of test compound that inhibits fifty-percent of ^125I-PYY binding (Table 4).
# Food-Deprived Rats = assay: Rodent feeding model: measurement of food intake in food-deprived rats; format: in vivo, Male Long-Evans rats; settings: 10 mg/kg i.p.
# Text: Measurement of Food Intake in Food-Deprived Rats
# Male Long-Evans rats (180-200 grams) are housed individually and are maintained on once-a-day feeding schedule (i.e., 10 a.m. until 4 p.m.) for five days following quarantine to allow the animals to acclimate to feeding on powdered chow (#5002 PMI Certified Rodent Meal) during the allotted time. The chow is made available in a open jar, anchored in the cage by a wire, with a metal follower covering the food to minimize spillage. Water is available ad-libitum.
# Animals are fasted for 18 hours prior to testing. At the end of the fasting period, animal are administered either compounds of the invention or vehicle. Vehicle and test compounds are administered either orally (5 mL/kg) 60 minutes prior to the experiment, or 30 minutes prior when given subcutaneously (1 mL/kg) or intraperitoneally (1 mL/kg). Compounds of the invention are administered orally as a suspension in aqueous 0.5% methylcellulose-0.4% Tween 80, or intraperitoneally as a solution or suspension in PEG 200; compound concentrations typically range from 1 mg/kg to 100 mg/kg, preferably from 10-30 mg/kg. Food intake is measured at 2, 4, and 6 hours after administration by weighing the special jar containing the food before the experiment and at the specified times. Upon completion of the experiment, all animals are given a one-week washout period before retesting.
# Percent reduction of food consumption is calculated subtracting the grams of food consumed by the treated group from the grams of food consumed by the control group divided by the grams of food consumed by the control group, multiplied by 100. A negative value indicates a reduction in food consumption and a positive value indicates an increase in food consumption. [formula]
Structure (SMILES),inhibition at 0.3 µM [1],inhibition at 3 µM [1],further results
"COc1ccc2c(c1)CC[C@@H]1N=C(NC(=O)[C@H]3CC[C@H](CNS(=O)(=O)c4ccccc4)CC3)C[C@H]21 (relative stereo) [Compound 7, trans-4-[[(Phenylsulfonyl)amino]methyl]-N-(cis-3a,4,5,9b-tetrahydro-7-methoxy-1H-benz[e]indol-2-yl)cyclohexanecarboxamide]",–,–,% Inh @ 300 nM ([1]; 0.3 µM): 82%; % Inh @ 3 uM ([1]; 3 µM): 98%
"COc1ccc2c(c1)CC[C@@H]1N=C(NC[C@H]3CC[C@H](CNS(=O)(=O)c4ccccc4)CC3)C[C@H]21 (relative stereo) [Compound 8, N-[[trans-4-[[(cis-3a,4,5,9b-tetrahydro-7-methoxy-1H-benz[e]indol-2-yl)amino]methyl]cyclohexyl]methyl]benzenesulfonamide]",85%,98%,"Food Consumption (avg. grams) 0-2 h (Food-Deprived Rats; 0-2 h, 18 h fasted rats): 4.38 g; Food Consumption 0-2 h (% chg.) (Food-Deprived Rats; 0-2 h, change vs vehicle, negative = reduction): (−52%); Food Consumption (avg. grams) 0-4 h (Food-Deprived Rats; 0-4 h, 18 h fasted rats): 7.88 g; Food Consumption 0-4 h (% chg.) (Food-Deprived Rats; 0-4 h, change vs vehicle, negative = reduction): (−38%); Food Consumption (avg. grams) 0-6 h (Food-Deprived Rats; 0-6 h, 18 h fasted rats): 12.00 g; Food Consumption 0-6 h (% chg.) (Food-Deprived Rats; 0-6 h, change vs vehicle, negative = reduction): (−43%); Food Consumption (avg. grams) 2-6 h (Food-Deprived Rats; 2-6 h, 18 h fasted rats): 7.63 g; Food Consumption 2-6 h (% chg.) (Food-Deprived Rats; 2-6 h, change vs vehicle, negative = reduction): (−37%)"
"O=C(NC1=N[C@H]2CCc3cc(O)ccc3[C@H]2C1)[C@H]1CC[C@H](CNS(=O)(=O)c2ccccc2)CC1 (relative stereo) [Compound 9, trans-4-[[(Phenylsulfonyl)amino]methyl]-N-(cis-3a,4,5,9b-tetrahydro-7-hydroxy-1H-benz[e]indol-2-yl)cyclohexanecarboxamide]",97%,97%,–
"O=C(NC1=N[C@H]2CCc3ccccc3[C@H]2C1)[C@H]1CC[C@H](CNS(=O)(=O)c2ccccc2)CC1 (relative stereo) [Compound 13, trans-4-[[(Phenylsulfonyl)amino]methyl]-N-(cis-3a,4,5,9b-tetrahydro-1H-benz[e]indol-2-yl)cyclohexanecarboxamide]",80%,100%,–
"O=S(=O)(NC[C@H]1CC[C@H](CNC2=N[C@H]3CCc4cc(F)ccc4[C@H]3C2)CC1)c1ccccc1 (relative stereo) [Compound 16, N-[[trans-4-[[(cis-3a,4,5,9b-tetrahydro-7-fluoro-1H-bnz[ ]indol-2-yl)amino]methyl]cyclohexyl]methyl]benzenesulfonamide]",–,–,% Inh @ 300 nM [1]: 76%; % Inh @ 3 uM [1]: 100%
O=C(CN1CCC(n2c(=O)[nH]c3ccccc32)CC1)NC1=N[C@@H]2CCc3ccccc3[C@@H]2C1 [Compound 11],48%,85%,–
COc1ccc2c(c1)CCC1N=C(NCCN3CCC(n4c(=O)[nH]c5ccccc54)CC3)CC21 (stereo not drawn) [Compound 12],–,–,% Inh @ 300 nM [1]: 9%; % Inh @ 3 uM [1]: 53%

# The next lines start with results.
inhibition at 0.3 µM [1],inhibition at 3 µM [1],Structure (SMILES),further results
89%,93%,"O=S(=O)(NC[C@H]1CC[C@H](CNC2=N[C@H]3CCc4ccccc4[C@H]3C2)CC1)c1ccccc1 (relative stereo) [Compound 14, N-[[trans-4-[[(cis-3a,4,5,9b-tetrahydro-1 H-benz[e]indol-2-yl)amino]methyl]cyclohexyl]methyl]benzenesulfonamide]",–
89%,100%,"O=C(NC1=N[C@H]2CCc3cc(F)ccc3[C@H]2C1)[C@H]1CC[C@H](CNS(=O)(=O)c2ccccc2)CC1 (relative stereo) [Compound 15, trans-4-[[(Phenylsulfonyl)amino]methyl]-N-(cis-3a,4,5,9b-tetrahydro-7-fluoro-1H-benz[e]indol-2-yl)cyclohexanecarboxamide]",–
86%,107%,"O=C(NC1=N[C@H]2CCc3cc(Cl)ccc3[C@H]2C1)[C@H]1CC[C@H](CNS(=O)(=O)c2ccccc2)CC1 (relative stereo) [Compound 17, trans-4-[[(Phenylsulfonyl)amino]methyl]-N-(cis-3a,4,5,9b-tetrahydro-7chloro-1H-benz[e]indol-2-yl)cyclohexanecarboxamide]",–
90%,109%,"O=S(=O)(NC[C@H]1CC[C@H](CNC2=N[C@H]3CCc4cc(Cl)ccc4[C@H]3C2)CC1)c1ccccc1 (relative stereo) [Compound 18, N-[[trans-4-[[(cis-3a,4,5,9b-tetrahydro-7-chloro-1H-benz[e]indol-2-yl)amino]methyl]cyclohexyl]methyl]benzenesulfonamide]",–
80%,99%,"COc1ccc2c(c1)CC[C@@H]1N=C(NC(=O)[C@H]3CC[C@H](CNS(=O)(=O)c4ccccc4)CC3)C[C@H]21 (relative stereo) [Compound 19, trans-4-[[(Phenylsulfonyl)amino]methyl]-N-(cis-3a,4,5,9b-tetrahydro-7-methoxy-1H-benz[e]indol-2-yl)cyclohexanecarboxamide]",–
0%,50%,"COc1ccc2c(c1)CCC1NC(N)(C(=O)CN3CCC(n4c(=O)[nH]c5ccccc54)CC3)CC21 (stereo not drawn) [Compound 20, 2-[[4-(2,3-Dihydro-2-oxo-1H-benzimidazol-1-yl)-1-piperidinyl]acetyl]-[3a,4,5,9b-tetrahydro-7-methoxy-1H-benzo[e]indol-2-yl]-amine]",–
20%,78%,"NC1(C(=O)CN2CCC(n3c(=O)[nH]c4ccccc43)CC2)CC2c3ccc(O)cc3CCC2N1 (stereo not drawn) [Compound 21, 2-[[4-(2,3-Dihydro-2-oxo-1H-benzimidazol-1-yl)-1-piperidinyl]acetyl]-[3a,4,5,9b-tetrahydro-7-hydroxy-1H-benzo[e]indol-2-yl]-amine]",–

# Source: patent US6841552B1, “3a,4,5,9b-tetrahydro-1H-benz[e]indol-2-yl amine-derived neuropeptide Y receptors ligands useful in the treatment of obesity and other disorders” (Ortho-McNeil Pharmaceutical, Inc., priority 1999, dated 2005)
